Test results reported in ChEMBL document CHEMBL4316589, “Attachment of a 5-nitrofuroyl moiety to spirocyclic piperidines produces non-toxic nitrofurans that are efficacious in vitro against multidrug-resistant Mycobacterium tuberculosis” (Eur J Med Chem, 2019).
Values after ≈ are worked out from the molar mass of the structure shown.

Experiments:
Format in all cases: functional
[1] = system: Mycobacterium tuberculosis; assay: Antimycobacterial activity against patient-derived multidrug-resistant Mycobacterium tuberculosis 2712 measured after 7 days by resazurin dye-based assay; settings: Mycobacterium tuberculosis, 2712, 168 h
[2] = system: Mycobacterium tuberculosis; assay: Antimycobacterial activity against patient-derived multidrug-resistant Mycobacterium tuberculosis 5023 measured after 7 days by resazurin dye-based assay; settings: Mycobacterium tuberculosis, 5023, 168 h
[3] = system: Mycobacterium tuberculosis; assay: Antimycobacterial activity against patient-derived multidrug-resistant Mycobacterium tuberculosis 7106 measured after 7 days by resazurin dye-based assay; settings: Mycobacterium tuberculosis, 7106, 168 h

| Structure (SMILES) | MIC [1] | MIC [2] | MIC [3] |
| --- | --- | --- | --- |
| COc1ccc(CC2CCOC3(CCN(C(=O)c4ccc([N+](=O)[O-])o4)CC3)C2)cc1 (stereo unspecified) | 6.2 µg/mL (≈ 15 µM) | 3.1 µg/mL (≈ 7.48 µM) | 3.1 µg/mL (≈ 7.48 µM) |
| COCCc1noc(CC2CCOC3(CCN(C(=O)c4ccc([N+](=O)[O-])o4)CC3)C2)n1 (stereo unspecified) | 12.5 µg/mL (≈ 28.8 µM) | 12.5 µg/mL (≈ 28.8 µM) | 25 µg/mL (≈ 57.5 µM) |
| O=C(c1ccc([N+](=O)[O-])o1)N1CCC2(CC1)CC(Cc1nc(C3CC3)no1)CCO2 (stereo unspecified) | 3.1 µg/mL (≈ 7.44 µM) | 12.5 µg/mL (≈ 30 µM) | 6.2 µg/mL (≈ 14.9 µM) |
| O=C(c1ccc([N+](=O)[O-])o1)N1CCC2(CC1)CC(Cc1nc(-c3cccnc3)no1)CCO2 (stereo unspecified) | 1.6 µg/mL (≈ 3.53 µM) | 3.1 µg/mL (≈ 6.84 µM) | 6.2 µg/mL (≈ 13.7 µM) |
| O=C(c1ccc([N+](=O)[O-])o1)N1CCC2(CCCCO2)CC1 | 6.2 µg/mL (≈ 21.1 µM) | 25 µg/mL (≈ 84.9 µM) | 25 µg/mL (≈ 84.9 µM) |
| Cc1ccc(CC2CCOC3(CCN(C(=O)c4ccc([N+](=O)[O-])o4)CC3)C2)cc1 (stereo unspecified) | 100 µg/mL (≈ 251 µM) | 3.1 µg/mL (≈ 7.78 µM) | 100 µg/mL (≈ 251 µM) |
| O=C(c1ccc([N+](=O)[O-])o1)N1CCC2(CC1)CC(OCc1ccc(F)cc1)CCO2 (stereo unspecified) | 25 µg/mL (≈ 59.7 µM) | 6.2 µg/mL (≈ 14.8 µM) | 6.2 µg/mL (≈ 14.8 µM) |
